Where two headings read alike, the source gives them in different places.
Biological target: T1, human PDE2A1 (Homo sapiens, UniProt O00408)
T1 construct: GST; purchased BPS Bioscience (San Diego, Calif.) 60020; host or cells: insect cells
Experiment: PDE2 IMAP FP inhibition assay, human enzyme (PDE selectivity panel format)
Type: biochemical
Protocol: Selectivity for PDE2, as compared to other PDE families, was assessed using the IMAP® technology. Human PDE10A2 enzyme was prepared from cytosolic fractions of transiently transfected HEK cells. All other PDE's were GST Tag human enzyme expressed in insect cells and were obtained from BPS Bioscience (San Diego, Calif.): PDE1A (Cat#60010), human PDE2A1 (Cat#60020), PDE3A (Cat#60030), PDE4A1A (Cat#60040), PDE5A1 (Cat#60050), PDE6C (Cat#60060), PDE7A (Cat#60070), PDE8A1 (Cat#60080), PDE9A2 (Cat#60090), PDE11A4 (Cat#60110).
Assays for PDE 1 through 11 were performed in parallel at room temperature in 384-well microtiter plates with an incubation volume of 20.2 μL. Solutions of test compounds were prepared in DMSO and serially diluted with DMSO to yield 30 μL of each of ten solutions differing by 3-fold in concentration, at 32 serial dilutions per plate. […] A Labcyte POD 810 (Labcyte, Sunnyvale, Calif.) was used to dispense 200 nL from each well of the titration plate to make eleven copies of the assay plate for each titration, one copy for each PDE enzyme. A solution of each enzyme (dilution from aliquots, sufficient to produce 20% substrate conversion) and a separate solution of FAM-labeled cAMP or FAM-labeled cGMP from Molecular Devices (Sunnyvale, Calif., product # R7506 or cGMP#R7508), at a final concentration of 50 nM were made in the assay buffer (10 mM Tris HCl, pH 7.2, 10 mM MgCl2, 0.05% NaN3 0.01% Tween-20, and 1 mM DTT). Note that the substrate for PDE2 is 50 nM FAM cAMP containing 1000 nM of cGMP. The enzyme and the substrate were then added to the assay plates in two consecutive additions of 10 μL and then shaken to mix. The reaction was allowed to proceed at room temperature for 60 minutes. A binding solution was then made from the kit components, comprised of 80% Solution A, 20% Solution B and binding reagent at a volume of 1/600 the total binding solution. The enzymatic reaction was stopped by addition of 60 μL of the binding solution to each well of the assay plate. The plates were sealed and shaken for 10 seconds. The plates were incubated at room temperature for one hour, then the parallel and perpendicular fluorescence was measured using a Tecan Genios Pro plate reader (Tecan, Switzerland). The apparent inhibition constants for the compounds against all 11 PDE's was determined from the parallel and perpendicular fluorescent readings as described for PDE10 FP assay using the following apparent KM values for each enzyme and substrate combination: PDE1A (FAM cGMP) 70 nM, human PDE2A1 (FAM cAMP) 10,000 nM, PDE3A (FAM cAMP) 50 nM, PDE4A1A (FAM cAMP) 1500 nM, PDE5A1 (FAM cGMP) 400 nM, PDE6C (FAM cGMP) 700 nM, PDE7A (FAM cAMP) 150 nM, PDE8A1 (FAM cAMP) 50 nM, PDE9A2 (FAM cGMP) 60 nM, PDE10A2 (FAM cAMP) 150 nM, PDE11A4 (FAM cAMP) 1000 nM. The intrinsic PDE2 inhibitory activity of a compound which may be used in accordance with the present invention may be determined by these assays. […]

[1] = Lab A, read-out: Human PDE2 Ki (nM) Lab A
[2] = Lab B, read-out: Human PDE2 Ki (nM) Lab B

T1 sequence (O00408 1-920 isoform O00408-2): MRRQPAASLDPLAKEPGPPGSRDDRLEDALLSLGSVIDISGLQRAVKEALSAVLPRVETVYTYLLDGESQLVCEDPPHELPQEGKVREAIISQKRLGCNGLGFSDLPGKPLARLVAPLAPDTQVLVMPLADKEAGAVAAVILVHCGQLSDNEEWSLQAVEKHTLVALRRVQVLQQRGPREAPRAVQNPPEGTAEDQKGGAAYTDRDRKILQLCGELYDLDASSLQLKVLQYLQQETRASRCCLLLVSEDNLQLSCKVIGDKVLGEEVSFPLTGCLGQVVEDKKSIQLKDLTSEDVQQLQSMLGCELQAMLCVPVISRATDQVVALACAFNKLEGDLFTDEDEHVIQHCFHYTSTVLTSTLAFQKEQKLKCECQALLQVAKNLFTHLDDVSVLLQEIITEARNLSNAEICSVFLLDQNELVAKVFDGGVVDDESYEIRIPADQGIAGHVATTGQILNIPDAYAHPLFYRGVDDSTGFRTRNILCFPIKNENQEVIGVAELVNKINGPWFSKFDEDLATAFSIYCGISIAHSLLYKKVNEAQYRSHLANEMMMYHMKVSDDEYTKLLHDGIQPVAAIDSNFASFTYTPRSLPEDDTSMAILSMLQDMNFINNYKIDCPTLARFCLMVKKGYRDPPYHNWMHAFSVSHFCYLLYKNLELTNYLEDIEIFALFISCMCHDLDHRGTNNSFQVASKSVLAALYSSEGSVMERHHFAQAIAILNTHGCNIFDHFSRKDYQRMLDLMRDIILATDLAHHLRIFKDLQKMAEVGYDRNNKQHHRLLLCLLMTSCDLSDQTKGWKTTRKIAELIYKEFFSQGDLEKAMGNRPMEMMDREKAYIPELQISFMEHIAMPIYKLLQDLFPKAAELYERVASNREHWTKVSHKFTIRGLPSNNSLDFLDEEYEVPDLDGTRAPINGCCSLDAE

Row | Compound | Ki [1] | Ki [2]
1 | Cc1nc(-n2cc([C@H](C)c3ccc(C(F)(F)F)cc3)cn2)cc(=O)[nH]1 (single isomer, unassigned) [Example 3] | – | 40.3 nM
2 | Cc1nc(-n2cc([C@H](C)c3ccc(C(F)(F)F)cc3)cn2)cc(=O)[nH]1 (single isomer, unassigned) [Example 4] | 18.2 nM | 14.4 nM
3 | Cc1nc(-n2ccc([C@H](C)c3ccc(C(F)(F)F)cc3)n2)cc(=O)[nH]1 (single isomer, unassigned) [Example 5] | – | 174 nM
4 | Cc1nc(-n2ccc([C@H](C)c3ccc(C(F)(F)F)cc3)n2)cc(=O)[nH]1 (single isomer, unassigned) [Example 6] | – | 241 nM
5 | Cc1nc(-n2cc([C@](C)(O)c3ccc(C(F)(F)F)cc3F)cn2)cc(=O)[nH]1 (single isomer, unassigned) [Example 16] | – | 47.1 nM
6 | Cc1nc(-c2cc([C@H](C)c3ccc(C(F)(F)F)cc3)[nH]n2)cc(=O)[nH]1 (single isomer, unassigned) [Example 24] | – | 81 nM
7 | Cc1nc(-n2cc(C3(C)OCc4cc(C(F)(F)F)ccc43)cn2)cc(=O)[nH]1 (single isomer, unassigned) [Example 27] | – | 66.6 nM
8 | Cc1nc(-n2cc(C3(C)OCc4cc(C(F)(F)F)ccc43)cn2)cc(=O)[nH]1 (single isomer, unassigned) [Example 28] | – | 72 nM
9 | Cc1nc(-n2cc(C(C)c3ccc(C(F)(F)F)cc3F)cn2)cc(=O)[nH]1 (single isomer, unassigned) [Example 52, (R)- or (S)-6-(4-(1-(2-fluoro-4-(trifluoromethyl)phenyl)ethyl)-1H-pyrazol-1-yl)-2-methylpyrimidin-4(3H)-one] | 12.3 nM | 4.9 nM
10 | Cc1nc(-n2cc(C(C)c3ccc(C(F)(F)F)cc3F)cn2)cc(=O)[nH]1 (single isomer, unassigned) [Example 53, (S)- or (R)-6-(4-(1-(2-fluoro-4-(trifluoromethyl)phenyl)ethyl)-1H-pyrazol-1-yl)-2-methylpyrimidin-4(3H)-one] | – | 33.2 nM
11 | Cc1nc(-c2cnn(C(C)c3ccc(S(F)(F)(F)(F)F)cc3)c2)cc(=O)[nH]1 (single isomer, unassigned) [Example 62, (R)- or (S)-2-methyl-6-(1-(1-(4-(pentafluorosulfanyl)phenyl)ethyl)-1H-pyrazol-4-yl)pyrimidin-4(3H)-one] | – | 86.5 nM
12 | Cc1nc(-c2ccn(C(C)c3ccc(C(F)(F)F)cc3)n2)cc(=O)[nH]1 (single isomer, unassigned) [Example 77, (R)- or (S)-2-methyl-6-(1-(1-(4-(trifluoromethyl)phenyl)ethyl)-1H-pyrazol-3-yl)pyrimidin-4(3H)-one] | – | 441 nM
13 | Cc1nc(-c2cnn(C(C)c3ccc(C(F)(F)F)cc3)c2C)cc(=O)[nH]1 (single isomer, unassigned) [Example 81, (R)- or (S)-2-methyl-6-(5-methyl-1-(1-(4-(trifluoromethyl)phenyl)ethyl)-1H-pyrazol-4-yl)pyrimidin-4(3H)-one] | – | 194 nM

More lines, in order of falling Ki [2], values ahead:

Row | Ki [1] | Ki [2] | Compound
14 | – | 255 nM | Cc1nc(-c2ccn(C(C)c3ccc(C(F)(F)F)cc3)n2)cc(=O)[nH]1 (single isomer, unassigned) [Example 78, (S)- or (R)-2-methyl-6-(1-{(1R)-1-[4-(trifluoromethyl)phenyl]ethyl}-1H-pyrazol-3-yl)pyrimidin-4(3H)-one]
15 | – | 199 nM | Cc1nc(-n2cc([C@]3(c4ccc(C(F)(F)F)cc4)CCCO3)cn2)cc(=O)[nH]1 (single isomer, unassigned) [Example 21]
16 | – | 85 nM | Cc1nc(-n2cc([C@H](CO)c3ccc(C(F)(F)F)cc3F)cn2)cc(=O)[nH]1 (single isomer, unassigned) [Example 19]
17 | – | 46.5 nM | Cc1nc(-c2cnn(C(C)c3ccc(S(F)(F)(F)(F)F)cc3)c2)cc(=O)[nH]1 (single isomer, unassigned) [Example 63, (S)- or (R)-2-methyl-6-(1-(1-(4-(pentafluorosulfanyl)phenyl)ethyl)-1H-pyrazol-4-yl)pyrimidin-4(3H)-one]
18 | – | 31.5 nM | Cc1nc(-n2cc([C@]3(c4ccc(C(F)(F)F)cc4)CCCO3)cn2)cc(=O)[nH]1 (single isomer, unassigned) [Example 22]
19 | – | 19.4 nM | Cc1nc(-c2cc([C@H](C)c3ccc(C(F)(F)F)cc3)[nH]n2)cc(=O)[nH]1 (single isomer, unassigned) [Example 23]
20 | 41.5 nM | 17.1 nM | COc1cc(C(F)(F)F)ccc1[C@@H](C)n1cc(-c2cc(=O)[nH]c(C)n2)cn1 (single isomer, unassigned) [Example 2]
21 | 32.3 nM | 16.8 nM | Cc1nc(-n2cc([C@H](CO)c3ccc(C(F)(F)F)cc3F)cn2)cc(=O)[nH]1 (single isomer, unassigned) [Example 20]
22 | – | 11.7 nM | Cc1nc(-n2cc([C@](C)(O)c3ccc(C(F)(F)F)cc3F)cn2)cc(=O)[nH]1 (single isomer, unassigned) [Example 15]
23 | 22 nM | 8.5 nM | COc1ccc(Cc2nc(-c3cnn(C(C)c4ccc(S(F)(F)(F)(F)F)cc4)c3)cc(=O)[nH]2)cc1OC (single isomer, unassigned) [Example 65, (S)- or (R)-2-(3,4-dimethoxybenzyl)-6-(1-(1-(4-(pentafluorosulfanyl)phenyl)ethyl)-1H-pyrazol-4-yl)pyrimidin-4(3H)-one 4(3H)-one]
24 | 16.4 nM | 6.8 nM | Cc1nc(-c2cnn(C(C)c3ccc(C(F)(F)F)cc3C)c2)cc(=O)[nH]1 (single isomer, unassigned) [Example 57, (S)- or (R)-2-methyl-6-(1-(1-(2-methyl-4-(trifluoromethyl)phenyl)ethyl)-1H-pyrazol-4-yl)pyrimidin-4(3H)-one]
25 | 7.2 nM | 3.3 nM | COc1ccc(Cc2nc(-c3cnn(C(C)c4ccc(S(F)(F)(F)(F)F)cc4)c3)cc(=O)[nH]2)cc1OC (single isomer, unassigned) [Example 64, (R)- or (S)-2-(3,4-dimethoxybenzyl)-6-(1-(1-(4-(pentafluorosulfanyl)phenyl)ethyl)-1H-pyrazol-4-yl)pyrimidin-4(3H)-one]
26 | 3.7 nM | 1.1 nM | COc1ccc(Cc2nc(-c3cnn(C(C)c4ccc(C(F)(F)F)cc4)c3)cc(=O)[nH]2)cc1OC (single isomer, unassigned) [Example 60, (R)- or (S)-2-(3,4-dimethoxybenzyl)-6-(1-(1-4-(trifluoromethyl)phenyl)ethyl)-1H-pyrazol-4-yl)pyrimidin-4(3H)-one]
27 | 2.4 nM | 0.9 nM | COc1ccc(Cc2nc(-c3cnn(C(C)c4ccc(C(F)(F)F)cc4)c3)cc(=O)[nH]2)cc1OC (single isomer, unassigned) [Example 61, (S)- or (R)-2-(3,4-dimethoxybenzyl)-6-(1-(1-(4-(trifluoromethyl)phenyl)ethyl)-1H-pyrazol-4-yl)pyrimidin-4(3H)-one]
28 | – | 0.5 nM | COc1ccc(Cc2nc(-c3cnn(C(C)c4ccc(C(F)(F)F)cc4F)c3)cc(=O)[nH]2)cc1OC (single isomer, unassigned) [Example 66, (R)- or (S)-2-(3,4-dimethoxybenzyl)-6-(1-(1-(2-fluoro-4-(trifluoromethyl)phenyl)ethyl)-1H-pyrazol-4-yl)pyrimidin-4(3H)-one]
29 | 0.2 nM | 0.1 nM | COc1ccc(Cc2nc(-c3cnn(C(C)c4ccc(C(F)(F)F)cc4F)c3)cc(=O)[nH]2)cc1OC (single isomer, unassigned) [Example 67]

Reference: patent publication US10287269B2, “Pyrazolyl pyrimidinone compounds as PDE2 inhibitors” (Merck Sharp & Dohme Corp., priority 2015, dated 2019)
